Data from patent publication US20100137399A1, “PREVENTIVE AND/OR THERAPEUTIC AGENT FOR URINE COLLECTION DISORDER ACCOMPANYING LOWER URINARY TRACT OBSTRUCTION” (KISSEI PHARMACEUTICAL CO., LTD., priority 2004, published 2010).
Where a name gives a salt, the structure may show the parent alone.

Columns and labels:
[1] = test system: patients with urinary disturbance associated with benign prostatic hyperplasia; assay: Placebo-control parallel groups-comparing double blind clinical trial, I-PSS changes from pre-administration; assay type: in vivo, human; settings: for I-PSS (irritative symptom) Changes / I-PSS (obstructive symptom) Changes / Total I-PSS Changes: oral, 12 weeks
Source text: Using patients with urinary disturbance associated with benign prostatic hyperplasia as the subjects, the clinical effects of silodosin and tamsulosin hydrochloride were examined by a placebo-control parallel groups-comparing double blind trial, using changes in the total I-PSS (International Prostate Symptom Score) from pre-administration as the primary endpoint. The I-PSS consists of 3 items of irritative symptoms representing the symptoms at the time of storing (Nocturia, Urgency and Urination within 2 hours) and 4 items of obstructive symptoms representing the symptoms at the time of voiding (Sensation of residual urine, Intermittency of urinary stream, Power of urinary stream and Straining during urination), prepared for use in the judgment of various therapeutic effects on the dysuria associated with benign prostatic hyperplasia, but this is not specific to prostatic hyperplasia and can also be used for the judgment of therapeutic effects on female dysuria and the like (Non-patent Reference 1).
Effects of silodosin (4 mg per once, twice a day) and tamsulosin hydrochloride (0.2 mg per once, once a day) on the storage disorder were examined by the following method.
Patients to be tested: 455 patients with dysuria associated with benign prostatic hyperplasia
Administration method: oral administration for 12 weeks
Primary endpoints: total score of I-PSS, I-PSS irritative symptom score and I-PSS obstructive symptom score
Analysis method: all of the finally evaluated cases were stratified into groups of patients having a total score of less than 6 and that of 6 or more regarding the “Urination within 2 hours” and “Urgency” of I-PSS, and average values of respective changes in the total score of I-PSS, I-PSS irritative symptom score and I-PSS obstructive symptom score before and after the administration were calculated for each group.
Administration groups: silodosin group (116 cases having a pre-administration score of less than 6, and 58 cases having that of 6 or more), tamsulosin group (135 cases having a pre-administration score of less than 6, and 57 cases having that of 6 or more), a placebo group (61 cases having a pre-administration score of less than 6, and 28 cases having that of 6 or more)
Not at all: 0 point; Less than 1 time in 5: 1 point; Less than 1 time in 2: 2 points; About 1 time in 2: 3 points; More than 1 time in 2: 4 points; Almost always: 5 points.
None: 0 point; 1 time: 1 point; 2 times: 2 points; 3 times: 3 points; 4 times: 4 points; 5 times or more: 5 points.

α1A-AR subtype = biological target: T1, α1A-AR subtype (Homo sapiens, UniProt P35348); settings: Patent Reference 3 and Non-patent Reference 5; cited from earlier work
T1 sequence (P35348 1-466): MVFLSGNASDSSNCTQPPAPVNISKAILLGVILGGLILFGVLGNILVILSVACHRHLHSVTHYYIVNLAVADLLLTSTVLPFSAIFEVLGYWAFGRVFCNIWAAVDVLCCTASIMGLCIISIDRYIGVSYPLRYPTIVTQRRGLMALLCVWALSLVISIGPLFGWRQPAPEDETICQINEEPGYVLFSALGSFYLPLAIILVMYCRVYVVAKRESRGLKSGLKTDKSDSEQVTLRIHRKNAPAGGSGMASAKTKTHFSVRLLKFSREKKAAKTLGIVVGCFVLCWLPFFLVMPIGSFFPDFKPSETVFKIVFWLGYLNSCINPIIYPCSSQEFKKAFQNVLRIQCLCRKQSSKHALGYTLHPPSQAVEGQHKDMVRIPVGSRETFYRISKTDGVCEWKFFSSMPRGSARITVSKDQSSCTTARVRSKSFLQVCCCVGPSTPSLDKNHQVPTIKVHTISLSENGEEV

α1B-AR subtype = biological target: T2, α1B-AR subtype (Homo sapiens, UniProt P35368); settings: Patent Reference 3 and Non-patent Reference 5; cited from earlier work
T2 sequence (P35368 1-520): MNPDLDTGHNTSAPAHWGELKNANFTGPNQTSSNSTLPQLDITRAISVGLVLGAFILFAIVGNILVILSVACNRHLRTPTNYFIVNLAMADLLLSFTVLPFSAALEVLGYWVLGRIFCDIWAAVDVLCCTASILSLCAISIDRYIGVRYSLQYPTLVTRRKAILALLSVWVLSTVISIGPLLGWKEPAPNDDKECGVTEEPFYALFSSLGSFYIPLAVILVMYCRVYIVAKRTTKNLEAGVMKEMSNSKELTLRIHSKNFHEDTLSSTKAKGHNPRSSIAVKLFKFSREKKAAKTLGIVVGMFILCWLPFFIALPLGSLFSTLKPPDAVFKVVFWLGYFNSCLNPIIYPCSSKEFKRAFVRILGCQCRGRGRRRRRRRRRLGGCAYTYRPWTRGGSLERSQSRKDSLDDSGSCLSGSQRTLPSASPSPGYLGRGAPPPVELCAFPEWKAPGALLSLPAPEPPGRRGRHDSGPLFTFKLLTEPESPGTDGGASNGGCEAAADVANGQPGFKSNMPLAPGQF

α1D-AR subtype = biological target: T3, α1D-AR subtype (Homo sapiens, UniProt P25100); settings: Patent Reference 3 and Non-patent Reference 5; cited from earlier work
T3 sequence (P25100 1-572): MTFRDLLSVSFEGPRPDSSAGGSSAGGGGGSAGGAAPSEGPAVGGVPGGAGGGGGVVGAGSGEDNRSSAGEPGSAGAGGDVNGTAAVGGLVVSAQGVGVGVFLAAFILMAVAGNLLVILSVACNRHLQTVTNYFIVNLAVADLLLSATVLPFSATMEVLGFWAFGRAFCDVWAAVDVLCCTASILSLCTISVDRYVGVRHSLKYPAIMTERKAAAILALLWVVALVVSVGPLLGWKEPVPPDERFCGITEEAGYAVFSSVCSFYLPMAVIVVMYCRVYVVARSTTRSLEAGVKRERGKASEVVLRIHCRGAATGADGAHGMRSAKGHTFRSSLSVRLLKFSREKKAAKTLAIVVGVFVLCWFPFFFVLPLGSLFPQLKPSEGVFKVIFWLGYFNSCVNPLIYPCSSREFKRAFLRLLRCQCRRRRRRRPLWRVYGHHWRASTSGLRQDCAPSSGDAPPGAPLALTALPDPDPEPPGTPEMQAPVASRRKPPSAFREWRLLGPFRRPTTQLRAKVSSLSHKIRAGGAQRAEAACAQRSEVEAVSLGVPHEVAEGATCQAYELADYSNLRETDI

[2] = Overall (all patients), average change
[3] = patients with pre-administration total score of "Urination within 2 hours" and "Urgency" less than 6, average change before/after administration
[4] = pre-administration score 6 or more, average change
[5] = pre-administration score less than 6, average change

| SMILES | I-PSS (irritative symptom) Changes [1, 2] | I-PSS (obstructive symptom) Changes [1, 2] | Total I-PSS Changes [1, 2] | Total I-PSS Changes [1, 3] | I-PSS (irritative symptom) Changes [1, 4] | I-PSS (obstructive symptom) Changes [1, 4] | Total I-PSS Changes [1, 4] | I-PSS (irritative symptom) Changes [1, 5] | I-PSS (obstructive symptom) Changes [1, 5] | Effect on I-PSS irritative symptom score in patients showing storage disorders (in words) ([1]; particularly patients with 6 or more total score of "Urination within 2 hours" and "Urgency" at pre-administration) | Action upon α1A-AR subtype (in words) (α1A-AR subtype) | Inverse agonist activity (in words) (α1A-AR subtype) | Action upon α1B-AR subtype (in words) (α1B-AR subtype) | Action upon α1D-AR subtype (in words) (α1D-AR subtype) |
| --- | --- | --- | --- | --- | --- | --- | --- | --- | --- | --- | --- | --- | --- | --- |
| CCOc1ccccc1OCCN[C@H](C)Cc1ccc(OC)c(S(N)(=O)=O)c1 [Tamsulosin, tamsulosin hydrochloride, reference compound] | −2.1 | −4.8 | −6.8 | −5.9 | −3.9 | −5.2 | −9.1 | −1.3 | −4.6 | – | – | – | – | – |
| C[C@H](Cc1cc2c(c(C(N)=O)c1)N(CCCO)CC2)NCCOc1ccccc1OCC(F)(F)F [Silodosin, (−)-1-(3-hydroxypropyl)-5-((2R)-2-{[2-({2-[(2,2,2-trifluoroethyl)-oxy]phenyl}oxy)ethyl]amino}propyl)2,3-dihydro-1H-indole-7-carboxamide] | −2.5 | −5.8 | −8.3 | −6.8 | −4.3 | −7.1 | −11.3 | −1.6 | −5.2 | has the effect to improve I-PSS irritative symptom score | selectively acts | does not show inverse agonist activity | hardly acts | hardly acts |
